Holding throughout (format): biochemical
Assay [1] has as its target Human KLK1 (Homo sapiens (Human), UniProt P06870). Put plainly: Determination of the IC50 for KLK1. The conditions noted are these: human KLK1, 25° C., substrate H-DVal-Leu-Arg-AFC. The method, then:
Determination of the IC50 for KLK1
Human KLK1 (Callbiochem) was incubated at 25° C. with the fluorogenic substrate H-DVal-Leu-Arg-AFC and various concentrations of the test compound. Residual enzyme activity (initial rate of reaction) was determined by measuring the change in […] at 410 nm and the IC50 value for the test compound was determined.

Assay [2] concerns the target Human plasma kallikrein (Homo sapiens (Human), UniProt P03952). Put plainly: Determination of the IC50 for plasma kallikrein. The conditions noted are these: read-out: IC50 (human PKal). The method, then:
Determination of the IC50 for Plasma Kallikrein
Human plasma kallikrein (Protogen) was incubated at 25° C. with the fluorogenic substrate H-DPro-Phe-Arg-AFC and various concentrations of the test compound. Residual enzyme activity (initial rate of reaction) was determined by measuring the change in […] at 410 nm and the IC50 value for the test compound was determined.

Assay [3] has as its target Human FXIa (Homo sapiens (Human), UniProt P03951). Put plainly: Determination of the % inhibition for FXIa. To be noted: 40 μM of the test compound, human FXIa, 25° C.; read-out: % Inhibition @ 40 μM (human FXIa). The protocol: Determination of the % Inhibition for FXIa
Human FXIa (Enzyme Research Laboratories) was incubated at 25° C. with the fluorogenic substrate Z-Gly-Pro-Arg-AFC and 40 μM of the test compound. Residual enzyme activity (initial rate of reaction) was determined by measuring the change in […].

A value given as a limit tells only on which side of the number the result lay.

Human KLK1, sequence (P06870 25-262): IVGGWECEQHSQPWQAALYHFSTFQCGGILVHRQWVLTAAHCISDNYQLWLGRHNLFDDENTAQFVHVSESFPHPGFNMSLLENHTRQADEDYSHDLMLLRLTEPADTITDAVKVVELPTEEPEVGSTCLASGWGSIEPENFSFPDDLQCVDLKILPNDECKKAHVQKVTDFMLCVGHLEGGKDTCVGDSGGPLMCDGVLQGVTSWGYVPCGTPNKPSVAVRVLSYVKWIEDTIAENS
Human plasma kallikrein, sequence (P03952 391-638): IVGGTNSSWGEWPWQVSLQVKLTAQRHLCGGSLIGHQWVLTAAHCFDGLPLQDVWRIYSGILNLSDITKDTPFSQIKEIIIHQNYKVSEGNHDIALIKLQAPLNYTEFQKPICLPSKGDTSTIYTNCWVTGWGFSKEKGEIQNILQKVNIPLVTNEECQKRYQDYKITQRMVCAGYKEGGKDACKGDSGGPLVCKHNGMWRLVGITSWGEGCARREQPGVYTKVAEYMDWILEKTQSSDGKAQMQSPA
Human plasma kallikrein, sequence (P03952 20-390 partner): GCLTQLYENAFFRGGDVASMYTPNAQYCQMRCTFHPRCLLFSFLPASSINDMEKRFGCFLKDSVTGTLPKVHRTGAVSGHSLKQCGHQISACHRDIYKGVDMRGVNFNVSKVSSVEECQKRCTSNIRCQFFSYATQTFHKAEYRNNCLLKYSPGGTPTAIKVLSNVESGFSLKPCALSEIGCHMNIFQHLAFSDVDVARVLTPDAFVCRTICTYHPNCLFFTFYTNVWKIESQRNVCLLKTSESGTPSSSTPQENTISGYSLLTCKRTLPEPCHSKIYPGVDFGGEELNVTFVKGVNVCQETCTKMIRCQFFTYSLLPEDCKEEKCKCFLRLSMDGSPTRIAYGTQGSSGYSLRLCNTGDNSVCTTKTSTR
Human FXIa, sequence (P03951 388-625 limits assumed): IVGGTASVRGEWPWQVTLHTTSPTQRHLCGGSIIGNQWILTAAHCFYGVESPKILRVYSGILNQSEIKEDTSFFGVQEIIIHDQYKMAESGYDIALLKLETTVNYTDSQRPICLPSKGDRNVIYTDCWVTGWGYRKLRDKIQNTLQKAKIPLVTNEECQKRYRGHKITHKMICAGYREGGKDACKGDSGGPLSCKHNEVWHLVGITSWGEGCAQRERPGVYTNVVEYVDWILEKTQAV
Human FXIa, sequence (P03951 19-387 partner limits assumed): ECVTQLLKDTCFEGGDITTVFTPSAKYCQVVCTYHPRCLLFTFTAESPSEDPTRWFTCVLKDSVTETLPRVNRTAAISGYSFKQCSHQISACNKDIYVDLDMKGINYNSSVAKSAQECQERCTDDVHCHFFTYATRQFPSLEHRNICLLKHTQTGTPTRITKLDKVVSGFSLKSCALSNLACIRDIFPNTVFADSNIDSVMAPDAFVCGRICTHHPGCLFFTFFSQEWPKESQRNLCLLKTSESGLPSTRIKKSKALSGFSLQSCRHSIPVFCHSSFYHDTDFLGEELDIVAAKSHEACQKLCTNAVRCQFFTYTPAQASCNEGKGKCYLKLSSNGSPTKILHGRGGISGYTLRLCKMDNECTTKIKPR

As to `C[C@@H](NC(=O)c1cn(Cc2ccc(Cn3ccccc3=O)cc2)nc1N)C(=O)N(C)c1cccc(Cl)c1` [Example 117, (2R)-2-{[3-amino-1-({4-[(2-oxopyridin-1-yl)methyl]phenyl}methyl)pyrazol-4-yl]formamido}-N-(3-chlorophenyl)-N-methylpropanamide], the results for the IC50 in assay [1] and in assay [2] were above 40 µM and 3.02 µM, respectively. Besides, in assay [3], the inhibition at 40 µM is 4%.

In the case of `O=C(NCCOc1cccc(Cl)c1)c1cn(Cc2ccc(N3CCCC3)nc2)nc1C(F)(F)F` [Example 28, N-[2-(3-chlorophenoxy)ethyl]-1-{[6-(pyrrolidin-1-yl)pyridin-3-yl]methyl}-3-(trifluoromethyl)pyrazole-4-carboxamide], the IC50 in assay [1] is above 10 µM; in assay [2], 2.39 µM. Besides, the inhibition at 40 µM in assay [3] is 0%.

Consider `COCc1nn(Cc2ccc(Cn3ccccc3=O)cc2)cc1C(=O)NCCOc1cc(Cl)ccc1F` [Example 9, N-[2-(5-chloro-2-fluorophenoxy)ethyl]-3-(methoxymethyl)-1-({4-[(2-oxopyridin-1-yl)methyl]phenyl}methyl)pyrazole-4-carboxamide], for which the IC50 in assay [1] is above 10 µM; in assay [2], 0.191 µM. Further, in assay [3], the inhibition at 40 µM turned out to be 0%.

On to `Nc1nn(Cc2ccc(Cn3ccccc3=O)cc2)cc1C(=O)N[C@H]1CCN(c2cccc(Cl)c2)C1` [Example 105, 3-amino-N-[(3S)-1-(3-chlorophenyl)pyrrolidin-3-yl]-1-({4-[(2-oxopyridin-1-yl)methyl]phenyl}methyl)pyrazole-4-carboxamide], for which the IC50 in assay [1] is above 40 µM; in assay [2], 0.0038 µM. The inhibition at 40 µM in assay [3] was 0%.

Turning to `Nc1nn(Cc2ccc(Cn3ccccc3=O)cc2)cc1C(=O)NCCOc1cccc(Cl)c1Cl` [Example 29, 3-amino-N-[2-(2,3-dichlorophenoxy}ethyl]-1-({4-[(2-oxopyridin-1-yl)methyl]phenyl}methyl)pyrazole-4-carboxamide], the results for the IC50 in assay [1] and in assay [2] were above 40 µM and 2.93 µM, respectively. For the same molecule, in assay [3], the inhibition at 40 µM amounted to 0%.

`Nc1nn(Cc2ccc(-c3ncccn3)cc2)cc1C(=O)NCCOc1cccc(Cl)c1` [Example 79, 3-amino-N-[2-(3-chlorophenoxy)ethyl]-1-{[4-(pyrimidin-2-yl)phenyl]methyl}pyrazole-4-carboxamide]: the concentration for half-maximal inhibition (IC50) in assay [1] was above 40 µM; in assay [2], 5.87 µM. The inhibition at 40 µM in assay [3] was determined as 9%.

Turning to `Nc1nn(Cc2ccc(Cn3ccccc3=O)cc2)cc1C(=O)NCCOc1ccc(Cl)c(Cl)c1` [Example 30, 3-amino-N-[2-(3,4-dichlorophenoxy}ethyl]-1-({4-[(2-oxopyridin-1-yl)methyl]phenyl}methyl)pyrazole-4-carboxamide], the half-maximal inhibitory concentration (IC50) in assay [1] is above 40 µM; in assay [2] it was 0.0968 µM. Also, the inhibition at 40 µM in assay [3] worked out at 0%.

As to `Nc1nn(Cc2ccc(Cn3ccccc3=O)cc2)cc1C(=O)N[C@H]1CC(=O)N(c2cccc(Cl)c2)C1` [Example 111, 3-amino-N-[(3S)-1-(3-chlorophenyl)-5-oxopyrrolidin-3-yl]-1-({4-[(2-oxopyridin-1-yl)methyl]phenyl}methyl)pyrazole-4-carboxamide], the IC50 was above 40 µM in assay [1] and 0.0421 µM in assay [2]. Further, the inhibition at 40 µM in assay [3] is 23%.

As to `Nc1nn(Cc2ccc(Cn3cccnc3=O)cc2)cc1C(=O)NCCOc1cccc(Cl)c1` [Example 86, 3-amino-N-[2-(3-chlorophenoxy)ethyl]-1-({4-[(2-oxopyrimidin-1-yl)methyl]phenyl}methyl)pyrazole-4-carboxamide], the IC50 in assay [1] is above 40 µM; in assay [2], 0.0302 µM. In addition, the inhibition at 40 µM in assay [3] stood at 0%.

`Nc1nn(Cc2ccc(Cn3ccccc3=O)cc2)cc1C(=O)NCCCc1cccc(Cl)c1` [Example 42, 3-amino-N-[3-(3-chlorophenyl)propyl]-1-({4-[(2-oxopyridin-1-yl)methyl]phenyl}methyl)pyrazole-4-carboxamide]: the results for the IC50 in assay [1] and in assay [2] were above 40 µM and 0.0032 µM, respectively. The inhibition at 40 µM in assay [3] was determined as 0%.

As to `Nc1c(C(=O)NCCOc2cccc(Cl)c2)cnn1Cc1ccc(C(=O)N2CCCC2)cc1` [Example 45, 5-amino-N-[2-(3-chlorophenoxy)ethyl]-1-({4-[(pyrrolidin-1-yl)carbonyl]phenyl}methyl)pyrazole-4-carboxamide], the values for the IC50 in assay [1] and in assay [2] were above 40 µM and 6.25 µM, respectively.

For the molecule `CC(CNC(=O)c1cn(Cc2ccc(Cn3ccccc3=O)cc2)nc1N)Oc1cccc(Cl)c1` (racemic) [Example 118, 3-amino-N-[(2R/S)-2-(3-chlorophenoxy)propyl]-1-({4-[(2-oxopyridin-1-yl)methyl]phenyl}methyl)pyrazole-4-carboxamide], the IC50 in assay [1] was above 40 µM; in assay [2], 0.0133 µM.

As to `Nc1nn(Cc2ccc(-c3cccnc3)nc2)cc1C(=O)NCCOc1cccc(Cl)c1` [Example 97, 3-amino-N-[2-(3-chlorophenoxy)ethyl]-1-{[6-(pyridin-3-yl)pyridin-3-yl]methyl}pyrazole-4-carboxamide], the IC50 was above 40 µM in assay [1] and 1.13 µM in assay [2].

On to `CN(C)C(=O)c1ccc(Cn2cc(C(=O)NCCOc3cccc(Cl)c3)c(N)n2)cc1` [Example 59, 3-amino-N-[2-(3-chlorophenoxy)ethyl]-1-{[4-(dimethylcarbamoyl)phenyl]methyl}pyrazole-4-carboxamide], for which the IC50 in assay [1] is above 40 µM; in assay [2], above 10 µM.

For `Nc1nn(Cc2ccc(Cn3cc(F)ccc3=O)cc2)cc1C(=O)NCCOc1cccc(Cl)c1` [Example 100, 3-amino-N-[2-(3-chlorophenoxy)ethyl]-1-({4-[(5-fluoro-2-oxopyridin-1-yl)methyl]phenyl}methyl)pyrazole-4-carboxamide], the values for the IC50 in assay [1] and in assay [2] were above 40 µM and 0.0062 µM, respectively.

Consider `Nc1nn(Cc2cccc(C(=O)O)c2)cc1C(=O)NCCOc1cccc(Cl)c1` [Example 63, 3-[(3-amino-4-{[2-(3-chlorophenoxy)ethyl]carbamoyl}pyrazol-1-yl)methyl]benzoic acid], for which the IC50 in assay [1] was above 40 µM; in assay [2], above 10 µM.

As to `Nc1nn(Cc2ccc(Cn3ccccc3=O)cc2)cc1C(=O)NCC(=O)Nc1ccc(Cl)cc1` [Example 4, 2-{[3-amino-1-({4-[(2-oxopyridin-1-yl)methyl]phenyl}methyl)pyrazol-4-yl]formamido}-N-(4-chlorophenyl)acetamide], the IC50 in assay [1] and in assay [2] was above 10 µM in each case.

Consider `Nc1nn(Cc2ccc(Cn3ccccc3=O)cc2F)cc1C(=O)NCCOc1cccc(Cl)c1` [Example 101, 3-amino-N-[2-(3-chlorophenoxy)ethyl]-1-({2-fluoro-4-[(2-oxopyridin-1-yl)methyl]phenyl}methyl)pyrazole-4-carboxamide], for which the IC50 is above 40 µM in assay [1] and 0.0076 µM in assay [2].

On to `COCc1nn(Cc2ccc(Cn3ccccc3=O)cc2)cc1C(=O)NCCOc1cc(Cl)cc(OC)c1` [Example 11, N-[2-(3-chloro-5-methoxyphenoxy)ethyl]-3-(methoxymethyl)-1-({4-[(2-oxopyridin-1-yl)methyl]phenyl}methyl)pyrazole-4-carboxamide], for which the IC50 in assay [1] and in assay [2] was above 10 µM in each case.

For the molecule `Cc1nc2cc(Cn3cc(C(=O)NCCOc4cccc(Cl)c4)c(N)n3)ccc2n1C` [Example 95, 3-amino-N-[2-(3-chlorophenoxy)ethyl]-1-[(1,2-dimethyl-1,3-benzodiazol-5-yl)methyl]pyrazole-4-carboxamide], the IC50 in assay [1] is above 40 µM; in assay [2], 1.9 µM.

In the case of `COCc1nn(Cc2ccc(Cn3ccc(C)cc3=O)cc2)cc1C(=O)NCCOc1cccc(Cl)c1` [Example 104, N-[2-(3-chlorophenoxy)ethyl]-3-(methoxymethyl)-1-({4-[(4-methyl-2-oxopyridin-1-yl)methyl]phenyl}methyl)pyrazole-4-carboxamide], the results for the IC50 in assay [1] and in assay [2] were above 40 µM and 0.413 µM, respectively.

`Nc1nn(Cc2ccc(Cn3c(F)cccc3=O)cc2)cc1C(=O)NCCOc1cccc(Cl)c1` [Example 99, 3-amino-N-[2-(3-chlorophenoxy)ethyl]-1-({4-[(2-fluoro-6-oxopyridin-1-yl)methyl]phenyl}methyl)pyrazole-4-carboxamide]: the IC50 in assay [1] was above 40 µM; in assay [2], 2.07 µM.

Consider `Nc1c(C(=O)NCCOc2cccc(Cl)c2)cnn1Cc1ccc2[nH]ncc2c1` [Example 44, 5-amino-N-[2-(3-chlorophenoxy)ethyl]-1-(1H-indazol-5-ylmethyl)pyrazole-4-carboxamide], for which the IC50 in assay [1] was above 40 µM; in assay [2] it was above 10 µM.

Regarding `Nc1nn(Cc2cccc(Cl)n2)cc1C(=O)NCCOc1cccc(Cl)c1` [Example 81, 3-amino-N-[2-(3-chlorophenoxy)ethyl]-1-[(6-chloropyridin-2-yl)methyl]pyrazole-4-carboxamide], the IC50 is above 40 µM in assay [1] and above 10 µM in assay [2].

As to `Cc1nn(Cc2ccc(Cn3ccccc3=O)cc2)cc1C(=O)NCCOc1cccc(Cl)c1` [Example 39, N-[2-(3-chlorophenoxy)ethyl]-3-methyl-1-({4-[(2-oxopyridin-1-yl)methyl]phenyl}methyl)pyrazole-4-carboxamide], the IC50 is above 40 µM in assay [1] and 0.0163 µM in assay [2].

For orientation: IC50 means the concentration needed to halve the response being measured. Broadly, the inhibition is the relative decrease from the control value, in per cent.
